Assay results published in patent US20260271931A1, “HERBICIDAL MIXTURES” (Bayer Aktiengesellschaft, priority 2023, published 2026).
Where two headings read alike, the source gives them in different places.

Columns and labels:
Type in all cases: in vivo
Centaurea cyanus (CENCY) [1] = experiment: Post-emergence action against weeds, greenhouse pot test, visual rating: Centaurea cyanus; settings: 240 h, read-out: Herbicidal effect [%] on CENCY 10 DAT
[2] = system: Pharbitis purpurea (PHBPU); experiment: Post-emergence action against weeds, greenhouse pot test, visual rating: Pharbitis purpurea; settings: 0.4 g a.i./ha
Avena fatua (AVEFA) = experiment: Post-emergence action against weeds, greenhouse pot test, visual rating: Avena fatua; settings: for pest or weed control at […]: Avena fatua, 240 h, 10 DAT, read-out: Herbicidal effect [%] on AVEFA 10 DAT
Kochia scoparia (KCHSC) = experiment: Post-emergence action against weeds, greenhouse pot test, visual rating: Kochia scoparia; settings: for pest or weed control at 0.4 g/ha / pest or weed control at […]: Bassia scoparia, post-emergence, 504 h, read-out: Herbicidal effect [%] on KCHSC 21 DAT
Lolium rigidum (LOLRI) = experiment: Post-emergence action against weeds, greenhouse pot test, visual rating: Lolium rigidum; settings: for pest or weed control at 0.4 g/ha / pest or weed control at […]: Lolium rigidum, 504 h, 21 DAT, read-out: Herbicidal effect [%] on LOLRI 21 DAT
Eleusine indica (ELEIN) = experiment: Post-emergence action against weeds, greenhouse pot test, visual rating: Eleusine indica; settings: for pest or weed control at 0.4 g/ha / pest or weed control at […]: Eleusine indica, post-emergence
Protocol: (§1) When the observed efficacies already exceed the formal sum total of the values of the tests with individual applications, they also exceed the expected value according to Colby, which is calculated using the formula below and is likewise regarded as an indication of synergism (cf. S. R. Colby; in Weeds 15 (1967) pp. 20 to 22):
(§2) where: • A=efficacy of the active ingredient (A) in % at an application rate of a [g a.i./ha]; • B=efficacy of the active ingredient (B) in % at an application rate of b [g a.i./ha]; • E^C=expected value of the effect of the combination (A)+(B) in % at the combined application rate a+b [g a.i./ha].
(§3) The observed values (E^A) from the experiments, given suitable low dosages, show an effect of the combinations exceeding the expected values according to Colby (E^C) (Δ).
(§4) Seeds of mono- and dicotyledonous weeds were placed in sandy loam in pots, covered with soil and grown in a greenhouse under good growth conditions (temperature, air humidity, water supply). Two to three weeks after sowing, the test plants were treated at the two- to four-leaf stage with the compositions of the invention. The compositions of the invention, formulated as spray powders or as emulsion concentrates, were sprayed onto the green parts of the plant in various dosages with an application rate equivalent to […] of water. After the test plants had been kept in the greenhouse under optimum growth conditions for 3 weeks, the activity of the preparations was rated visually in comparison to untreated controls.
(§5) 100% efficacy means complete control of the particular weed tested.
(§6) 0% efficacy means zero control of the particular weed tested.
(§7) Expected values according to Colby are reported under E.
(§8) The exceedance of the expected value E is given as Δ (=synergistic effect).
(§9) The rating period is reported in days after application (DAT).

Centaurea cyanus (CENCY) [3] = experiment: Post-emergence action against weeds, greenhouse pot test, visual rating: Centaurea cyanus
Protocol: as §1, §2, §3, §4, §5, §6, §7, §8, §9

[4] = system: Pharbitis purpurea (PHBPU); experiment: Post-emergence action against weeds, greenhouse pot test, visual rating: Pharbitis purpurea
Protocol: as §1, §2, §3, §4, §5, §6, §7, §8, §9

[5] = system: Sorghum halepense (SORHA); experiment: Post-emergence action against weeds, greenhouse pot test, visual rating: Sorghum halepense
How it was run: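 Weeds sown in sandy loam in greenhouse pots and sprayed post-emergence at the 2–4-leaf stage (2–3 weeks after sowing), formulated as spray powders or emulsion concentrates at various dosages in […] water. Efficacy rated visually versus untreated controls after 3 weeks (0–100%); Colby expected value E and excess Δ reported.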

[6] = system: Brachiaria platyfylla (BRAPP); experiment: Post-emergence action against weeds, greenhouse pot test, visual rating: Brachiaria platyfylla; settings: for pest or weed control at […] / pest or weed control at 0.4 g/ha: post-emergence
Protocol: as §1, §2, §3, §4, §5, §6, §7, §8, §9

Bidens pilosa (BIDPI) = experiment: Post-emergence action against weeds, greenhouse pot test, visual rating: Bidens pilosa
[7] = system: Echinochloa crus-galli (ECHCG); experiment: Post-emergence action against weeds, greenhouse pot test, visual rating: Echinochloa crus-galli
[8] = 504 h, 0.4 g a.i./ha, read-out: Herbicidal effect [%] on ELEIN 21 DAT

C=C[C@]1(C(=O)N[C@H]2CO[C@@H](C(=O)OC)C2)CC(c2cc(F)cc(F)c2)=NO1 (relative stereo) [Icafolin-methyl, methyl rel-(2R,4R)-4-[[(5S)-3-(3,5-difluorophenyl)-5-vinyl-4H-isoxazole-5-carbonyl]amino]tetrahydrofuran-2-carboxylate]
pest or weed control at 0.4 g/ha (Centaurea cyanus (CENCY) [1]; 0.4 g a.i./ha): 0%
Herbicidal effect [%] on PHBPU 10 DAT [2]: 0%
Herbicidal effect [%] on AVEFA 21 DAT (Avena fatua (AVEFA); 0.4 g a.i./ha): 10%
pest or weed control at 0.4 g/ha (Kochia scoparia (KCHSC); 0.4 g a.i./ha): 0%
Herbicidal effect [%] on LOLRI 10 DAT (Lolium rigidum (LOLRI); 0.4 g a.i./ha): 10%
pest or weed control at 0.4 g/ha (Lolium rigidum (LOLRI); 0.4 g a.i./ha): 0%
pest or weed control at 0.4 g/ha (Eleusine indica (ELEIN); [8]): 0%

CCOC(=O)COc1ncccc1Oc1cc(-n2c(=O)cc(C(C)(F)F)n(C)c2=O)c(F)cc1Cl [Compound A1, ethyl [(3-{2-chloro-5-[4-(1,1-difluoroethyl)-3-methyl-2,6-dioxo-3,6-dihydropyrimidin-1(2H)-yl]-4-fluorophenoxy}pyridin-2-yl)oxy]acetate]
pest or weed control at […] (Centaurea cyanus (CENCY) [1]; 0.15 g a.i./ha): 15%
pest or weed control at […] (Centaurea cyanus (CENCY) [1]; 0.45 g a.i./ha): 40%
Herbicidal effect [%] on CENCY 21 DAT (Centaurea cyanus (CENCY) [3]; 0.15 g a.i./ha): 15%
Herbicidal effect [%] on CENCY 21 DAT (Centaurea cyanus (CENCY) [3]; 0.45 g a.i./ha): 20%
Herbicidal effect [%] on PHBPU 10 DAT ([4]; 0.15 g a.i./ha): 20%
Herbicidal effect [%] on PHBPU 21 DAT ([4]; 0.15 g a.i./ha): 20%
Herbicidal effect [%] on PHBPU 10 DAT ([4]; 0.45 g a.i./ha): 77.5%
Herbicidal effect [%] on PHBPU 21 DAT ([4]; 0.45 g a.i./ha): 50%
Herbicidal effect [%] on SORHA 10 DAT ([5]; 0.15 g a.i./ha): 47.5%
Herbicidal effect [%] on SORHA 21 DAT ([5]; 0.15 g a.i./ha): 49%
Herbicidal effect [%] on SORHA 10 DAT ([5]; 0.45 g a.i./ha): 45%
Herbicidal effect [%] on SORHA 21 DAT ([5]; 0.45 g a.i./ha): 40%
Herbicidal effect [%] on AVEFA 21 DAT (Avena fatua (AVEFA); 0.15 g a.i./ha): 10%
Herbicidal effect [%] on AVEFA 21 DAT (Avena fatua (AVEFA); 0.45 g a.i./ha): 20%
pest or weed control at […] (Avena fatua (AVEFA); 0.15 g a.i./ha): 5%
pest or weed control at […] (Avena fatua (AVEFA); 0.45 g a.i./ha): 20%
Herbicidal effect [%] on KCHSC 10 DAT (Kochia scoparia (KCHSC); 0.15 g a.i./ha): 5%
Herbicidal effect [%] on KCHSC 10 DAT (Kochia scoparia (KCHSC); 0.45 g a.i./ha): 25%
pest or weed control at […] (Kochia scoparia (KCHSC); 0.15 g a.i./ha): 0%
pest or weed control at […] (Kochia scoparia (KCHSC); 0.45 g a.i./ha): 5%
Herbicidal effect [%] on LOLRI 10 DAT (Lolium rigidum (LOLRI); 0.15 g a.i./ha): 10%
Herbicidal effect [%] on LOLRI 10 DAT (Lolium rigidum (LOLRI); 0.45 g a.i./ha): 15%
pest or weed control at […] (Lolium rigidum (LOLRI); 0.15 g a.i./ha): 5%
pest or weed control at […] (Lolium rigidum (LOLRI); 0.45 g a.i./ha): 5%
pest or weed control at […] ([6]; 240 h, 0.15 g a.i./ha, read-out: Herbicidal effect [%] on BRAPP 10 DAT): 30%
pest or weed control at […] ([6]; 240 h, 0.45 g a.i./ha, read-out: Herbicidal effect [%] on BRAPP 10 DAT): 45%
pest or weed control at […] ([6]; 504 h, 0.15 g a.i./ha, read-out: Herbicidal effect [%] on BRAPP 21 DAT): 0%
pest or weed control at […] ([6]; 504 h, 0.45 g a.i./ha, read-out: Herbicidal effect [%] on BRAPP 21 DAT): 0%
Herbicidal effect [%] on BIDPI 10 DAT (Bidens pilosa (BIDPI); 0.15 g a.i./ha): 20%
Herbicidal effect [%] on BIDPI 21 DAT (Bidens pilosa (BIDPI); 0.15 g a.i./ha): 10%
Herbicidal effect [%] on BIDPI 10 DAT (Bidens pilosa (BIDPI); 0.45 g a.i./ha): 57.5%
Herbicidal effect [%] on BIDPI 21 DAT (Bidens pilosa (BIDPI); 0.45 g a.i./ha): 30%
pest or weed control at […] (Eleusine indica (ELEIN); 240 h, 0.15 g a.i./ha, read-out: Herbicidal effect [%] on ELEIN 10 DAT): 10%
pest or weed control at […] (Eleusine indica (ELEIN); 240 h, 0.45 g a.i./ha, read-out: Herbicidal effect [%] on ELEIN 10 DAT): 35%
pest or weed control at […] (Eleusine indica (ELEIN); 504 h, 0.15 g a.i./ha, read-out: Herbicidal effect [%] on ELEIN 21 DAT): 5%
pest or weed control at […] (Eleusine indica (ELEIN); 504 h, 0.45 g a.i./ha, read-out: Herbicidal effect [%] on ELEIN 21 DAT): 5%
Herbicidal effect [%] on ECHCG 10 DAT ([7]; 0.15 g a.i./ha): 10%
Herbicidal effect [%] on ECHCG 21 DAT ([7]; 0.15 g a.i./ha): 10%
Herbicidal effect [%] on ECHCG 10 DAT ([7]; 0.45 g a.i./ha): 25%
Herbicidal effect [%] on ECHCG 21 DAT ([7]; 0.45 g a.i./ha): 20%

C#CCN1C(=O)COc2cc(F)c(N3C(=O)C4=C(CCCC4)C3=O)cc21 [Flumioxazin, flumioxazin]
Herbicidal effect [%] on PHBPU 10 DAT [2]: 50%
Herbicidal effect [%] on PHBPU 21 DAT ([4]; 0.4 g a.i./ha): 30%
Herbicidal effect [%] on KCHSC 10 DAT (Kochia scoparia (KCHSC); 0.4 g a.i./ha): 30%
pest or weed control at 0.4 g/ha (Kochia scoparia (KCHSC); 0.4 g a.i./ha): 10%
pest or weed control at 0.4 g/ha (Lolium rigidum (LOLRI); 0.4 g a.i./ha): 0%
pest or weed control at 0.4 g/ha ([6]; 240 h, 0.4 g a.i./ha, read-out: Herbicidal effect [%] on BRAPP 10 DAT): 30%
pest or weed control at 0.4 g/ha ([6]; 504 h, 0.4 g a.i./ha, read-out: Herbicidal effect [%] on BRAPP 21 DAT): 10%
pest or weed control at 0.4 g/ha (Eleusine indica (ELEIN); 240 h, 0.4 g a.i./ha, read-out: Herbicidal effect [%] on ELEIN 10 DAT): 30%
pest or weed control at 0.4 g/ha (Eleusine indica (ELEIN); [8]): 0%

C#CCN1C(=O)C(F)(F)Oc2cc(F)c(-n3c(=O)n(C)c(=S)n(C)c3=O)cc21 [Trifludimoxazin, trifludimoxazin]
Herbicidal effect [%] on PHBPU 10 DAT [2]: 80%
Herbicidal effect [%] on CENCY 10 DAT (Centaurea cyanus (CENCY) [3]; 0.4 g a.i./ha): 30%
Herbicidal effect [%] on PHBPU 21 DAT ([4]; 0.4 g a.i./ha): 40%
Herbicidal effect [%] on KCHSC 10 DAT (Kochia scoparia (KCHSC); 0.4 g a.i./ha): 85%
Herbicidal effect [%] on KCHSC 21 DAT (Kochia scoparia (KCHSC); 0.4 g a.i./ha): 60%
Herbicidal effect [%] on LOLRI 10 DAT (Lolium rigidum (LOLRI); 0.4 g a.i./ha): 20%
Herbicidal effect [%] on BRAPP 10 DAT ([6]; 0.4 g a.i./ha): 40%
Herbicidal effect [%] on BRAPP 21 DAT ([6]; 0.4 g a.i./ha): 0%
Herbicidal effect [%] on BIDPI 10 DAT (Bidens pilosa (BIDPI); 0.4 g a.i./ha): 60%
Herbicidal effect [%] on BIDPI 21 DAT (Bidens pilosa (BIDPI); 0.4 g a.i./ha): 60%
Herbicidal effect [%] on ELEIN 10 DAT (Eleusine indica (ELEIN); 0.4 g a.i./ha): 70%
Herbicidal effect [%] on ELEIN 21 DAT (Eleusine indica (ELEIN); 0.4 g a.i./ha): 20%
